Experimental data as given in patent US20260166039A1 (SCHRÖDINGER, INC., priority 2022, published 2026).
Read-outs that look alike come from different tables or passages of the source.

Legend:
Wee1 kinase domain = target: T1, Wee1 kinase domain (Homo sapiens, UniProt P30291); assay: Wee1 Kinase Biochemical Assay (ADP-Glo); conditions: 15 uM ATP
T1 construct: Wee1 kinase domain was purchased from Carna (catalog #05-177); purchased Carna 05-177
In short: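 ADP-Glo detection of ADP produced after 4 h at 25° C by 1 nM Wee1 kinase domain on 2 ng/mL poly(Lys,Tyr 4:1) with 15 uM ATP. Buffer: 40 mM Tris-HCl, 20 mM MgCl2, 0.1 mg/mL BSA, 2 mM DTT. Inhibition is relative to DMSO (high) and saturating Wee1 inhibitor (low) controls.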

[1] = test system: phosphorylation of Cdc2 Y15 (Wee1 substrate) in A427 cells; assay: Phosphorylated Cdc2 MSD Electrochemiluminescence Assay; assay type: cell-based; conditions: Homo sapiens
In short: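 Read-out: percent residual phospho-Cdc2 Y15 relative to DMSO and positive-control Wee1 inhibitor, measured by MSD electrochemiluminescence capture/detection antibody assay in cell lysates. A427 cells received duplicate 3-fold compound dilution series 20 h post-seeding, with 6 h total incubation at 37 °C.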

[2] = class symbols, 1 nM Wee1 enzyme, 4 hours at 25° C.
[3] = A-427, class symbols, read-out: A427 pCDC2 MSD IC50

T1 sequence (P30291 299-569 limits assumed): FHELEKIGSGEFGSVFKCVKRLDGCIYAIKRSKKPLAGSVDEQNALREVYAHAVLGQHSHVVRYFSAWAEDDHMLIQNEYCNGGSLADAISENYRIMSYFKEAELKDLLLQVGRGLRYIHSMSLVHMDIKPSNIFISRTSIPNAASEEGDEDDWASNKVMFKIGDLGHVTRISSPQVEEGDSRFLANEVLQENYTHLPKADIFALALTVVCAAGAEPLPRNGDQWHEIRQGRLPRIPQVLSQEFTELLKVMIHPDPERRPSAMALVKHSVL

Row | SMILES | IC50 (Wee1 kinase domain; Wee1 kinase domain, ADP-Glo) | IC50 ([1]; A-427, pCDC2 MSD) | IC50 (Wee1 kinase domain; [2]) | IC50 [1, 3]
1 | CN1CCC[C@@H](n2cc(Nc3ncc4c(n3)N(c3cccc(N=S(C)(C)=O)n3)[C@@H]3CC(C)(C)OC[C@]43C)cn2)C1 (single isomer, unassigned) [Example 201] | < 0.01 µM | 0.1 to 1 µM |  | 
2 | CN1CCC(c2ncc(Nc3ncc4c(n3)N(c3cccc(N=S(C)(C)=O)n3)[C@@H]3CC(C)(C)OC[C@]43C)s2)CC1 (single isomer, unassigned) [Example 221] | < 0.01 µM | < 0.1 µM |  | 
3 | Cc1cc(Nc2ncc3c(n2)N(c2cccc(N4C(=O)OC[C@@H]4C)n2)[C@@H]2CC(C)(C)OC[C@]32C)ccc1[C@@H]1CCNC1 (single isomer, unassigned) [Example 269] | < 0.01 µM | 0.1 to 1 µM |  | 
4 | C[C@H]1COC(=O)N1c1cccc(N2c3nc(Nc4ccc(N5CCN(C)CC5)nc4)ncc3[C@@]3(C)COC(C)(C)C[C@@H]23)n1 (single isomer, unassigned) [Example 241] | < 0.01 µM | 0.1 to 1 µM |  | 
5 | Cc1cc(Nc2ncc3c(n2)N(c2cccc(N4C(=O)OC[C@@H]4C)n2)[C@@H]2CC(C)(C)OC[C@]32C)ccc1C1CCN(C)CC1 (single isomer, unassigned) [Example 238] | < 0.01 µM | 0.1 to 1 µM |  | 
6 | CNCc1cccc(N2c3nc(Nc4ccc(C5(C)COC5)cc4)ncc3[C@@]3(C)COC(C)(C)C[C@@H]23)n1 (single isomer, unassigned) [Example 84] | < 0.01 µM | 0.1 to 1 µM |  | 
7 | CC1(C)C[C@H]2N(c3cccc(N=S(C)(C)=O)n3)c3nc(Nc4ccc([C@H]5CCNC5)cc4)ncc3[C@@]2(C)CO1 (single isomer, unassigned) [Example 137] | < 0.01 µM | < 0.1 µM |  | 
8 | CNCc1cccc(N2c3nc(Nc4ccc([C@H]5CC(=O)N(C)C5)cc4)ncc3[C@@]3(C)COC(C)(C)C[C@@H]23)n1 (single isomer, unassigned) [Example 68] | < 0.01 µM | 0.1 to 1 µM |  | 
9 | CN1CCN(c2ccc(Nc3ncc4c(n3)N(c3cccc(N=S(C)(C)=O)n3)[C@@H]3CC(C)(C)OC[C@]43C)cc2)CC1 [Example 100, Dimethyl((6-((4bR,8aR)-4b,7,7-trimethyl-2-((4-(4-methylpiperazin-1-yl)phenyl)amino)-4b,7,8,8a-tetrahydropyrano[3′,4′:4,5]pyrrolo[2,3-d]pyrimidin-9(5H)-yl)pyridin-2-yl)imino)-l6-sulfanone] | < 0.01 µM | < 0.1 µM |  | 
10 | C[C@H]1COC(=O)N1c1cccc(N2c3nc(Nc4ccc(N5C[C@H]6C[C@@H]5CN6C)c(F)c4)ncc3[C@@]3(C)COC(C)(C)C[C@@H]23)n1 (single isomer, unassigned) [Example 291] | < 0.01 µM | 0.1 to 1 µM |  | 
11 | CNCc1cccc(N2c3nc(Nc4ccccc4)ncc3[C@@]3(C)COC(C)(C)C[C@@H]23)n1 (single isomer, unassigned) [Example 45] | < 0.01 µM | 0.1 to 1 µM |  | 
12 | C[C@H]1COC(=O)N1c1cccc(N2c3nc(Nc4ccn(C5CCN(C)CC5)c(=O)c4)ncc3[C@@]3(C)COC(C)(C)C[C@@H]23)n1 (single isomer, unassigned) [Example 273] | < 0.01 µM | 0.1 to 1 µM |  | 
13 | [2H]C([2H])([2H])N1CCC(c2ccc(Nc3ncc4c(n3)N(c3cccc(N=S(C)(C)=O)n3)[C@@H]3CC(C)(C)OC[C@]43C)cc2)CC1 (single isomer, unassigned) [Example 162] | < 0.01 µM | < 0.1 µM |  | 
14 | Cc1cc(Nc2ncc3c(n2)N(c2cccc(N4C(=O)OC[C@@H]4C)n2)[C@@H]2CC(C)(C)OC[C@]32C)ccc1[C@H]1CCNC1 (single isomer, unassigned) [Example 267] | < 0.01 µM | 0.1 to 1 µM |  | 

Results, then the molecule that gave them:

Row | IC50 (Wee1 kinase domain; Wee1 kinase domain, ADP-Glo) | IC50 ([1]; A-427, pCDC2 MSD) | IC50 (Wee1 kinase domain; [2]) | IC50 [1, 3] | SMILES
15 |  |  | < 0.01 µM | 0.1 to 1 µM | CN1C[C@@H]2C[C@H]1CN2c1ccc(Nc2ncc3c(n2)N(c2cccc(C(C)(C)O)n2)[C@@H]2CC(C)(C)OC[C@]32C)cc1F (single isomer, unassigned) [Example 431]
16 |  |  | < 0.01 µM | < 0.1 µM | C[C@H]1CN(c2ccc(Nc3ncc4c(n3)N(c3cccc(N=S(C)(C)=O)n3)[C@@H]3CC(C)(C)OC[C@]43C)cc2)CCN1C (single isomer, unassigned) [Example 500]
17 |  |  | < 0.01 µM | 0.1 to 1 µM | CN1CC2(C1)CN(c1ccc(Nc3ncc4c(n3)N(c3cccc(N5CCCC5=O)n3)[C@@H]3CC(C)(C)OC[C@]43C)cc1)C2 [Example 690, 1-(6-((4bR,8aR)-4b,7,7-trimethyl-2-((4-(6-methyl-2,6-diazaspiro[3.3]heptan-2-yl)phenyl)amino)-4b,7,8,8a-tetrahydropyrano[3′,4′:4,5]pyrrolo[2,3-d]pyrimidin-9(5H)-yl)pyridin-2-yl)pyrrolidin-2-one]
18 |  |  | < 0.01 µM | 0.1 to 1 µM | Cc1ccc(Nc2ncc3c(n2)N(c2cccc(N=S(C)(C)=O)n2)[C@@H]2CC(C)(C)OC[C@]32C)cn1 (single isomer, unassigned) [Example 491]
19 |  |  | < 0.01 µM | < 0.1 µM | CN1CC[C@@H]2CN(c3ccc(Nc4ncc5c(n4)N(c4cccc(N=S(C)(C)=O)n4)[C@@H]4CC(C)(C)OC[C@]54C)cc3)C[C@@H]21 (single isomer, unassigned) [Example 502]
20 |  |  | < 0.01 µM | 1 to 10 µM | CCn1ccc(N2c3nc(Nc4ccc(N5CCN(C)CC5)cc4)ncc3[C@@]3(C)COC(C)(C)C[C@@H]23)n1 (single isomer, unassigned) [Example 744]
21 |  |  | < 0.01 µM | < 0.1 µM | C[C@H]1CCC(=O)N1c1cccc(N2c3nc(Nc4ccc(C5CN(C)C5)cc4)ncc3[C@@]3(C)COC(C)(C)C[C@@H]23)n1 (single isomer, unassigned) [Example 727]
22 |  |  | < 0.01 µM | 0.1 to 1 µM | CN1CC[C@H]2CN(c3ccc(Nc4ncc5c(n4)N(c4cccc(C(C)(C)O)n4)[C@@H]4CC(C)(C)OC[C@]54C)cc3)C[C@H]21 (single isomer, unassigned) [Example 439]
23 |  |  | < 0.01 µM | 0.1 to 1 µM | CN1C[C@H]2C[C@@H]1CN2c1ccc(Nc2ncc3c(n2)N(c2cccc(N4CCOC4=O)n2)[C@@H]2CC(C)(C)OC[C@]32C)cc1 (single isomer, unassigned) [Example 593]
24 | < 0.01 µM | 0.1 to 1 µM |  |  | CC1(C)C[C@H]2N(c3cccc(N=S(C)(C)=O)n3)c3nc(Nc4ccn(C(F)F)c(=O)c4)ncc3[C@@]2(C)CO1 (single isomer, unassigned) [Example 374]
25 |  |  | < 0.01 µM | 0.1 to 1 µM | CNC1(c2cccc(N3c4nc(Nc5ccc(N6CCOCC6)cc5)ncc4[C@@]4(C)COC(C)(C)C[C@@H]34)n2)CC1 (single isomer, unassigned) [Example 543]
26 |  |  | < 0.01 µM | < 0.1 µM | CNC1(c2cccc(N3c4nc(Nc5ccc(C6CCN(C)CC6)c(C)c5)ncc4[C@@]4(C)COC(C)(C)C[C@@H]34)n2)CC1 (single isomer, unassigned) [Example 575]
27 | < 0.01 µM | 0.1 to 1 µM |  |  | C[C@H]1COC(=O)N1c1cccc(N2c3nc(Nc4ccc(N5CCCN(C)CC5)cc4)ncc3[C@@]3(C)COC(C)(C)C[C@@H]23)n1 (single isomer, unassigned) [Example 299]
28 |  |  | < 0.01 µM | 0.1 to 1 µM | CN1C[C@H]2C[C@@H]1CN2c1ccc(Nc2ncc3c(n2)N(c2cccc(N4CCCC4=O)n2)[C@@H]2CC(C)(C)OC[C@]32C)cc1 [Example 631, 1-(6-((4bR,8aR)-4b,7,7-trimethyl-2-((4-((1R,4R)-5-methyl-2,5-diazabicyclo[2.2.1]heptan-2-yl)phenyl)amino)-4b,7,8,8a-tetrahydropyrano[3′,4′:4,5]pyrrolo[2,3-d]pyrimidin-9(5H)-yl)pyridin-2-yl)pyrrolidin-2-one]
29 |  |  | < 0.01 µM | 0.1 to 1 µM | CN1CCN(c2ccc(Nc3ncc4c(n3)N(c3ccccn3)[C@@H]3CC(C)(C)OC[C@]43C)cc2)CC1 (single isomer, unassigned) [Example 722]
30 |  |  | < 0.01 µM | 0.1 to 1 µM | CNCc1cccc(N2c3nc(Nc4ccc(-n5nccn5)cc4)ncc3[C@@]3(C)COC(C)(C)C[C@@H]23)n1 (single isomer, unassigned) [Example 767]
31 |  |  | < 0.01 µM | < 0.1 µM | CC1(C)C[C@H]2N(c3cccc(C(C)(C)N)n3)c3nc(Nc4ccc(N5CCOCC5)cc4)ncc3[C@@]2(C)CO1 (single isomer, unassigned) [Example 567]
32 | < 0.01 µM | 0.1 to 1 µM |  |  | CN[C@H](Cc1ccc(Nc2ncc3c(n2)N(c2cccc(N4C(=O)OC[C@@H]4C)n2)[C@@H]2CC(C)(C)OC[C@]32C)cc1)C(=O)O (single isomer, unassigned) [Example 323]
33 |  |  | < 0.01 µM | 0.1 to 1 µM | CC1(C)C[C@H]2N(c3cccc(N4CCOC4=O)n3)c3nc(Nc4ccc([C@@H]5CNC[C@@H]5F)cc4)ncc3[C@@]2(C)CO1 [Example 675, 3-(6-((4bR,8aR)-2-((4-((3R,4R)-4-fluoropyrrolidin-3-yl)phenyl)amino)-4b,7,7-trimethyl-4b,7,8,8a-tetrahydropyrano[3′,4′:4,5]pyrrolo[2,3-d]pyrimidin-9(5H)-yl)pyridin-2-yl)oxazolidin-2-one]
34 |  |  | < 0.01 µM | 0.1 to 1 µM | CN=[S@](C)(=O)c1cccc(N2c3nc(Nc4ccc(N5CCN(C)CC5)cc4)ncc3[C@@]3(C)COC(C)(C)C[C@@H]23)n1 (single isomer, unassigned) [Example 766]
35 |  |  | < 0.01 µM | 0.1 to 1 µM | CN1CCN(c2ccc(Nc3ncc4c(n3)N(c3cccc(S(C)(=O)=O)n3)[C@@H]3CC(C)(C)OC[C@]43C)cc2)CC1 (single isomer, unassigned) [Example 749]
